# Where two headings read alike, the source gives them in different places.
# Legend:
# [1] = Body weight in asthma-induced mice; type: in vivo, Balb/c female mice
# Method: (§1) To prepare bronchial asthma-induced experimental animals, six-week-old Balb/c female mice of mean weight about 20 g were used. After one week of adaptation, individuals which had no observed abnormality on a basic physical examination were targeted. 200 μL of phosphate buffered saline (PBS)(pH 7.4) in which 2 mg of aluminum hydroxide (A8222, Sigma, St. Louis, Mo.) and 20 μg of ovalbumin (A5503, Sigma, St. Louis, Mo.) were suspended was injected into the peritoneal cavity at two-week intervals to result in sensitization. On days 28 to 30 after the first intraperitoneal administration of ovalbumin, inhalation challenge was performed for 30 min with 1% ovalbumin using an ultrasonic atomizer. 24 hours after the last antigen administration, airway hyperresponsiveness was measured. After 24 hours, a lethal dose of pentobarbital (Entobar®, Hanlim Pharm Co., Ltd.) was administered, body weight measurement and bronchotomy were performed, and bronchoalveolar lavage was performed with a total 1.2 mL of physiological saline, and then, samples were collected. […] Eight white mice were used for each group. Experimental groups for homoegonol were a group (hE7.5) in which animals were orally administered with 7.5 mg/kg homoegonol 1 hour prior to ovalbumin inhalation, a group (hE15) in which animals were orally administered with 15 mg/kg homoegonol 1 hour prior to ovalbumin inhalation, and a group (hE30) in which animals were orally administered with 30 mg/kg homoegonol 1 hour prior to ovalbumin inhalation, and five white mice were used for each group.
# (§2) To determine an effect of styraxlignolide A on reduction in body weight in asthma-induced mice, body weight of each mouse prepared in Example 2 was measured. For statistical analyses for all measurements, means and standard errors (mean±S.E.) according to a number of variables were calculated, and comparison between each group was analyzed by performing a Mann-whitney U test using SPSS 10.0. Statically significance was accepted at p<0.05.
# as §2, with “homoegonol” for “styraxlignolide A”
# [2] = system: airway hyperresponsiveness; assay: Airway hyperresponsiveness, Penh by one chamber plethysmography after methacholine inhalation; type: in vivo, Balb/c female mice; conditions: asthma-induced mice; for Penh values: homoegonol study, 30 mg/kg PO
# Method: as §1, with “Experimental groups for homoegonol were a group (hE7.5) in which animals were orally administered with 7.5 mg/kg homoegonol 1 hour prior to ovalbumin inhalation, a group (hE15) in which animals were orally administered with 15 mg/kg homoegonol 1 hour prior to ovalbumin inhalation, and a group (hE30) in which animals were orally administered with 30 mg/kg homoegonol 1 hour prior to ovalbumin inhalation, and five white mice were used for each group.” left out
# The effect of styraxlignolide A on airway hyperresponsiveness caused by asthma occurrence was examined by measuring airway resistance with one chamber plethysmography (All medicus, Seoul, Republic of Korea) and degree of airway resistance was assessed by measuring Penh (enhanced pause) values. The baseline value was measured under a normal respiratory condition, and then, PBS was inhaled using an ultrasonic atomizer for 3 min, and Penh values were measured over 3 min. […] Louis, Mo.) which is used in general methods for diagnosis of bronchial asthma were inhaled and Penh values were measured. Penh value is shown in the following Equation 1, and the resulting Penh value was expressed as a percent increase in Penh after inhalation of each concentration of methacholine. The baseline Penh (saline challenge) was expressed as 100%.
# Te: expiratory time (sec), the time from inspiration to the next inspiration
# RT: relaxation time, the elapsed time between the beginning of the expiration and the moment when the remaining 30% of the tidal volume has been reached during expiration
# PEF: Peak expiration flow
# PIF: Peak inspiration flow
# To examine the effect of homoegonol on airway hyperresponsiveness caused by asthma occurrence, Penh value was measured according to the method in <Experimental Example 2>.
# [3] = system: inflammatory cells in bronchoalveolar lavage fluid; assay: Inflammatory cell counts in bronchoalveolar lavage fluid (Diff-Quick staining); type: in vivo, Balb/c female mice; conditions: asthma-induced mice
# Method: as §1
# Bronchoalveolar lavage fluid was collected from individuals of each experimental group in <Example 2> and right after the collection, fluid was stained with trypan blue. The number of total cells except dead cells was calculated using a hemocytometer. Then, Diff-Quick staining (Sysmex, Swizerland) was performed after smear preparation with Cytospin II, and eosinophils and other inflammatory cells were differentially counted.
# To examine the effect of homoegonol on asthma, variation in the numbers of asthma-related inflammatory cells was measured according to the method in <Experimental Example 3>.
# ovalbumin-specific IgE = assay: IgE levels in serum and bronchoalveolar lavage fluid (ELISA); type: in vivo, Balb/c female mice; conditions: asthma-induced mice
# Method: as §1
# To measure serum and bronchoalveolar lavage fluid ovalbumin-specific IgE levels caused by administration of styraxlignolide A, an immunoenzyme technique was used. 20 μg/mL of ovalbumin was dissolved in a 0.1 M NAHCO3 buffer (pH 8.3), and was placed into a 96-well flat bottom ELISA plate to be coated at 4° C. overnight. Non-specific binding was blocked with PBS containing 1% bovine serum albumin, and a serum sample was diluted 1:400 and was allowed to react at room temperature for 2 hours. Then, the plate was washed well, and anti-mouse IgE monoclonal antibody was diluted 1:300 and was allowed to react for 2 hours. Then, HRP-conjugated goat anti-rat IgG polyclonal antibody which was coupled to peroxidase was diluted 1:4000 and was allowed to react at room temperature for 1 hour, and then, was washed. For color development, 3,3′,5,5′-tetramethylbezidine substrate was allowed to react, and the spectroscopic absorbance was measured at 650 nm.
# To measure IgE levels which are correlated with severity of asthma to examine the effect of homoegonol on asthma, IgE levels in serum and bronchoalveolar lavage fluid were measured according to the method in <Experimental Example 4>.
# [4] = system: alanine aminotransferase (ALT) and aspartate aminotransferase (AST) in serum; type: in vivo
# Method: as §1
# To examine liver toxicity of styraxlignolide A, a commercially available ELISA kit (BECKMAN Coulter, Inc., Fullerton, Calif., USA) was used to measure alanine aminotransferase (ALT) and aspartate aminotransferase (AST) in serum.
# goblet cells = assay: Ratio of goblet cells to bronchial epithelial cells (PAS staining); type: in vivo, Balb/c female mice; conditions: asthma-induced mice
# Method: as §1
# Lungs removed from each individual were subjected to conventional formalin fixation and paraffin embedding, and permanent section slides of 4 μm thickness were prepared, and periodic acid Schiff (PAS) staining was performed to determine goblet cells. Proliferation of goblet cells was assessed by measuring the ratio of goblet cells to bronchial epithelial cells.
# In accordance with the method in <Experimental Example 7-2>, the ratio of goblet cells which were determined by periodic acid-Schiff staining to bronchial epithelial cells were measured to assess proliferation of goblet cells.
# TGF-β1 = TGF-β1 in bronchoalveolar lavage fluid; type: in vivo, Balb/c female mice; conditions: asthma-induced mice, homoegonol study; 30 mg/kg PO
# Method: as §1
# (§3) To examine the effect of homoegonol on airway remodeling, generation of TGF-β1 and IL-17 in bronchoalveolar lavage fluid was measured.
# IL-17 = IL-17 in bronchoalveolar lavage fluid; type: in vivo, Balb/c female mice; conditions: asthma-induced mice, homoegonol study; 30 mg/kg PO
# Method: as §1, §3
# [5] = system: inflammatory cells in bronchoalveolar lavage fluid; assay: Inflammatory cell counts in bronchoalveolar lavage fluid (Diff-Quick staining); type: in vivo, Balb/c female mice; conditions: asthma-induced mice, styraxlignolide A study
# reactive oxygen species = assay: Reactive oxygen species generation in bronchoalveolar lavage fluid (2,7-dichlorofluorescein diacetate); type: in vivo, Balb/c female mice; design: dose or concentration left out as unconfirmed; conditions: asthma-induced mice, styraxlignolide A study, 1 hour prior to ovalbumin inhalation
# Method: To prepare bronchial asthma-induced experimental animals, six-week-old Balb/c female mice of mean weight about 20 g were used. After one week of adaptation, individuals which had no observed abnormality on a basic physical examination were targeted. 200 μL of phosphate buffered saline (PBS)(pH 7.4) in which 2 mg of aluminum hydroxide (A8222, Sigma, St. Louis, Mo.) and 20 μg of ovalbumin (A5503, Sigma, St. Louis, Mo.) were suspended was injected into the peritoneal cavity at two-week intervals to result in sensitization. On days 28 to 30 after the first intraperitoneal administration of ovalbumin, inhalation challenge was performed for 30 min with 1% ovalbumin using an ultrasonic atomizer. 24 hours after the last antigen administration, airway hyperresponsiveness was measured. […]
# To measure the amount of generated reactive oxygen species caused by administration of styraxlignolide A, some bronchoalveolar lavage fluid of each individual in <Example 2> was washed with PBS, and 10 μM 2,7-dichlorofluorescein diacetate (35845, Sigma, St. Louis, Mo.) was added thereto and bronchoalveolar lavage fluid was allowed to stand still in a room temperature dark room for 10 min, and the amount of generated reactive oxygen species was measured by a spectrofluorometer (Ex=480 nm, Em=522 nm).
# [6] = system: fibrosis in subsegmental bronchi; assay: Fibrosis in subsegmental bronchi (Masson's trichrome staining); type: in vivo, Balb/c female mice; conditions: asthma-induced mice, styraxlignolide A study; 1 hour prior to ovalbumin inhalation
# Method: as §1
# [7] = system: inflammatory cells in the airway mucosa; assay: Inflammatory cell infiltration in airway mucosa, inflammatory index (H&E staining); type: in vivo, Balb/c female mice; conditions: asthma-induced mice, styraxlignolide A study; 30 mg/kg PO 1 hour prior to ovalbumin inhalation; scale 0-4
# [8] = styraxlignolide A study, 30 mg/kg PO 1 hour prior to ovalbumin inhalation
# [9] = homoegonol study, 30 mg/kg PO, bronchoalveolar lavage fluid
# [10] = homoegonol study, 30 mg/kg PO, bronchoalveolar lavage fluid, 30 mg/kg
# [11] = asthma-induced mice, styraxlignolide A study, 30 mg/mL PO 1 hour prior to ovalbumin inhalation
smiles,measurement,setting,value
"CC(C)(O)c1ccccc1CC[C@@H](SCC1(CC(=O)O)CC1)c1cccc(/C=C/c2ccc3ccc(Cl)cc3n2)c1 [Monte, montelukast, reference compound]",body weight,"[1]; homoegonol study, 30 mg/kg PO 1 hour prior to ovalbumin inhalation",21.08 ± 0.57 g
same,body weight,[1]; [8],21.04 ± 0.30 g
same,Penh values,[2]; methacholine 0 mg/ml,0.6071 ± 0.0618
same,Penh values,[2]; methacholine 12.5 mg/ml,1.2979 ± 0.1537
same,Penh values,[2]; methacholine 25 mg/ml,1.4748 ± 0.1639
same,Penh values,[2]; methacholine 50 mg/ml,2.3069 ± 0.4225
same,"Number of cells, Other inflammatory cells",[3]; [9],48.84 ± 3.7377 ×10^3 cells/mouse
same,"Number of cells, Eosinophils",[3]; [10],19.12±9.17 ×10^3 cells/mouse
same,"Number of cells, Total inflammatory cells",[3]; [10],67.96±15.0532 ×10^3 cells/mouse
same,numbers of total inflammatory cells in bronchoalveolar lavage fluid,[3]; [8],193.29±19.99
same,Total IgE level in bronchoalveolar lavage fluid,ovalbumin-specific IgE; [9],104.7447 ± 9.7295 ng/mL
same,Total serum IgE level,"ovalbumin-specific IgE; homoegonol study, 30 mg/kg PO, serum, Table 2",16.22 ± 2.6329 µg/mL
same,serum ALT,"[4]; mouse, in vivo, po, 30 mg/kg",122.50±14.94 IU/L
same,serum AST,"[4]; mouse, in vivo, po, 30 mg/kg",205.00±27.17 IU/L
same,Goblet cells %/bronchial epithelial cell unit,"goblet cells; homoegonol study, 30 mg/kg PO, 30 mg/kg",34.6476±11.5492%
same,TGF-β1 concentrations in bronchoalveolar lavage fluid,TGF-β1,215.9375 ± 13.4334 pg/mL
same,IL-17 concentrations in bronchoalveolar lavage fluid,IL-17,15.8409 ± 2.5686 pg/mL
same,numbers of eosinophils in bronchoalveolar lavage fluid,[5]; 30 mg/kg PO 1 hour prior to ovalbumin inhalation,60.67±6.58
COc1ccc(-c2cc3cc(CCCO[C@@H]4OC(CO[C@@H]5OC[C@@H](O)C(O)C5O)[C@@H](O)C(O)C4O)cc(OC)c3o2)cc1OC (stereo partly drawn) [styraxlignolide A],body weight,"[1]; styraxlignolide A study, 30 mg/mL PO 1 hour prior to ovalbumin inhalation",21.04 ± 0.34 g
same,Penh (enhanced pause) values compared to the comparative groups,"[2]; styraxlignolide A study, 30 mg/mL PO 1 hour prior to ovalbumin inhalation, methacholine 12.5, 25, or 50 mg/mL",reduced Penh values compared to the comparative groups
same,Ovalbumin-specific IgE level in bronchoalveolar lavage fluid,"ovalbumin-specific IgE; styraxlignolide A study, 1 hour prior to ovalbumin inhalation, bronchoalveolar lavage fluid",15.4 ± 2.18 ng/mL
same,serum ovalbumin-specific IgE level,"ovalbumin-specific IgE; styraxlignolide A study, 1 hour prior to ovalbumin inhalation, serum, difference to asthma-induced group not significant",382 ± 60.60 ng/mL
same,"generated amount of reactive oxygen species, reduction compared to the asthma-induced group",reactive oxygen species,27.90%
same,serum ALT,[4]; [11],168.67±15.56 IU/L
same,serum AST,[4]; [11],245.33±12.87 IU/L
same,ratio of goblet cells to bronchiolar epithelial cells,"goblet cells; styraxlignolide A study, 1 hour prior to ovalbumin inhalation",29.52±8.02%
same,area of a fibrosis stained region per 100 μm of a basement membrane perimeter,[6],495.69±98.62 μm^2
same,numbers of eosinophils in bronchoalveolar lavage fluid,[5]; 30 mg/mL PO 1 hour prior to ovalbumin inhalation,20.77±2.34
same,numbers of total inflammatory cells in bronchoalveolar lavage fluid,[5]; 1 hour prior to ovalbumin inhalation,147.83±12.61
same,peribronchiolar inflammatory index,[7],1.17±0.2
